According to patent US20170313669A1, “LACTONE COMPOUNDS AND METHODS OF MAKING AND USING SAME” (THE SCRIPPS RESEARCH INSTITUTE, priority 2015, published 2017):

Experiments:
Assay type in all cases: biochemical
[1] = molecular target: T1, ABHD16A (WT and S355A mutant) (Homo sapiens, UniProt O95870); test: Activity-dependent labeling of ABHD16A by WHP01 in transfected HEK293T lysates; conditions: transfected HEK293T cell lysates
T1 construct: All full-length cDNA constructs coding for serine hydrolases ABHD16A, and ABHD12 were purchased from Open Biosystems; FLAG; expressed in transfected cells; host or cells: HEK293T

[2] = molecular target: T2, ABHD16A (mouse) (Mus musculus, UniProt Q9Z1Q2); test: Lipid substrate hydrolysis assay, murine ABHD16A-transfected HEK293T membrane proteome; conditions: substrate 100 μM
T2 construct: full-length cDNA of human ABHD16A (Open Biosystems Catalog # MHS6278-202758315) or murine ABHD16A (Open Biosystems Catalog # MMM1013-202760516) in pCMV-SPORT6 vector; host or cells: HEK293T
Procedure: (§1) All the lipid species used in the lipid substrate hydrolysis assays were purchased from Avanti Polar Lipids Inc unless mentioned otherwise. In general, 20 μg of proteome was incubated with 100 μM lipid in a reaction volume of 100 μL in PBS at 30° C. with constant shaking. After 30 minutes the reaction was quenched with 350 μL of 2:1 (vol/vol) CHCl3: MeOH, doped with 0.5 nmol internal standard (17:1 FFA). The mixture was vortexed, and the centrifuged at 2800×g for 5 minutes to separate the aqueous (top) and organic (bottom) phase. The organic phase was collected. 5 μL of formic acid was added to the aqueous phase, and extracted again using 350 μL of 2:1 (vol/vol) CHCl3: MeOH using above mentioned protocol. The organic phase was collected, and pooled with the organic phase from the first extraction. […] All the data was collected and analyzed using the Agilent MassHunter Workstation software version B.04 using the Data Acquisition and Quantitative Analysis programs respectively. Measuring the area under the peak, and normalizing it to the internal standard quantified the product release for the lipid substrate hydrolysis assays. […] Some products from the substrate hydrolysis assays were detected in positive ion mode for qualitative identification. […]

[3] = Lipid substrate hydrolysis assay, mock-transfected HEK293T membrane proteome; conditions: substrate 100 μM
Procedure: as §1

T1 sequence (O95870 whole entry S355A): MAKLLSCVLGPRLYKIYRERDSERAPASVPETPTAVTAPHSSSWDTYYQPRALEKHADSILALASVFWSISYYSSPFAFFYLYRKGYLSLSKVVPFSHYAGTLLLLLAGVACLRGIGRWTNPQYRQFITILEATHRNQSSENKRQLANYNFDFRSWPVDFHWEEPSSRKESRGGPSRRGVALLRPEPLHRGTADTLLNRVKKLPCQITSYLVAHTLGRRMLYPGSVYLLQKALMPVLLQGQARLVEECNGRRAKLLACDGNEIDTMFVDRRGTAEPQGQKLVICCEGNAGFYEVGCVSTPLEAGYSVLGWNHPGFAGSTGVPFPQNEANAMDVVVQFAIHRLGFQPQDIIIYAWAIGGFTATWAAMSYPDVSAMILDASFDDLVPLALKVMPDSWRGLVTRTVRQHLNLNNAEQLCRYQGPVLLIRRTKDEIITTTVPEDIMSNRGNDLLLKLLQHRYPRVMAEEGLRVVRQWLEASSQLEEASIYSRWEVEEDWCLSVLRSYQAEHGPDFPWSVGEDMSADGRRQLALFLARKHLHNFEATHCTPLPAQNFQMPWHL
T2 sequence (Q9Z1Q2 whole entry): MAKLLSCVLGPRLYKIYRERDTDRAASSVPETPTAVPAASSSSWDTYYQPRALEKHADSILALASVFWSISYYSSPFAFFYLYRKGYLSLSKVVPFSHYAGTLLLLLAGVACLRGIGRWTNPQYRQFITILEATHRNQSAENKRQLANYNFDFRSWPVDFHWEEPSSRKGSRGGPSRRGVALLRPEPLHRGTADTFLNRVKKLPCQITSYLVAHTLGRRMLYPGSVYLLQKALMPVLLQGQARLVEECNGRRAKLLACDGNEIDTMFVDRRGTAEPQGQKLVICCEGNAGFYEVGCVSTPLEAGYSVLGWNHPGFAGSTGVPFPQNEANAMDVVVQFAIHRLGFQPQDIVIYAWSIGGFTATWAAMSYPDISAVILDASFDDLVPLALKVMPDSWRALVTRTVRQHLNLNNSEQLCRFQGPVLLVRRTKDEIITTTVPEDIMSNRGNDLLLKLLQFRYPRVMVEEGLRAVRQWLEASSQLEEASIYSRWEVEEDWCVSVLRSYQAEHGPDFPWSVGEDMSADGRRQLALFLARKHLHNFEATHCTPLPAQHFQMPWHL

Lipase activity, ABHD16A, Mean [2] [nmol/mg/min] | Lipase activity, Mock, Mean [3] [nmol/mg/min] | Molecule | labeling of ABHD16A [1]
 |  | CCCCCCCCCCCCCC1OC(=O)/C1=C\CCCC(=O)NCCCCCNC(=O)c1ccc(-c2c3ccc(=[N+](C)C)cc-3oc3cc(N(C)C)ccc23)c(C(=O)[O-])c1 (stereo not drawn) [WHP01, (Z)-2-(6-(dimethylamino)-3-(dimethyliminio)-3H-xanthen-9-yl)-5-((5-(5-(2-oxo-4-tridecyloxetan-3-ylidene)pentanamido)pentyl)carbamoyl)benzoate] | labeled WT-ABHD16A but not the catalytic serine S355A mutant
12.5 | 3.8 | PG 16:0/18:1 | 
